Assay results: ChEMBL document CHEMBL3396977, “Design, synthesis and docking study of novel tetracyclic oxindole derivatives as α-glucosidase inhibitors” (Bioorg Med Chem Lett, 2015)
Calls of active or inactive are those of the source. The rule behind the calls is not given here.

Tests used:
Alpha-glucosidase MAL12 = Alpha-glucosidase MAL12 (Saccharomyces cerevisiae S288c, UniProt P53341); assay: Inhibition of bakers yeast alpha-glucosidase using p-nitrophenyl-alpha-D-glucopyranoside as substrate after 30 mins by spectrophotometry
[1] = molecular target: Oligo-1,6-glucosidase IMA1 (Saccharomyces cerevisiae S288c) (UniProt P53051); assay: Ratio of acarbose IC50 to compound IC50 for bakers yeast alpha-glucosidase using p-nitrophenyl-alpha-D-glucopyranoside as substrate after 30 mins by spectrophotometry
[2] = molecular target: Oligo-1,6-glucosidase IMA1 (Saccharomyces cerevisiae S288c) (UniProt P53051); assay: Competitive inhibition of bakers yeast alpha-glucosidase using p-nitrophenyl-alpha-D-glucopyranoside as substrate at 0.5 to 5 uM after 30 mins by Lineweaver-Burk plot analysis

Chain of Alpha-glucosidase MAL12 (P53341 whole entry): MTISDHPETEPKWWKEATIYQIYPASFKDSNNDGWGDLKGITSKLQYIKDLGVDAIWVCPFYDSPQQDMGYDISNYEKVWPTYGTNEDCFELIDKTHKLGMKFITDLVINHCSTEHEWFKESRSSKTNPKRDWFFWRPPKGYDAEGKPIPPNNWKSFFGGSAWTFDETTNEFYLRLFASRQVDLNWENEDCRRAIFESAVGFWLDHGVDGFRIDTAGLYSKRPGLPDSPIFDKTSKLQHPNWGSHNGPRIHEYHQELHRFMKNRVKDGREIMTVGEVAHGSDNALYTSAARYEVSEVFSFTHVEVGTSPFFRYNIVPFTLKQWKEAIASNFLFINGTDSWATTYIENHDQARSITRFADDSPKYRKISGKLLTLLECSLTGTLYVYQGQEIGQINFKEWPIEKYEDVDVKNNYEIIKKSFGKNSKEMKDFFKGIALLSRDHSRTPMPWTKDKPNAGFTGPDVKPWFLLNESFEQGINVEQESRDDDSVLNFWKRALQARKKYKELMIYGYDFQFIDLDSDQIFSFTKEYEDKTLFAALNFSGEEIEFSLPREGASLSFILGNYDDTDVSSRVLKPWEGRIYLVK
Chain of Oligo-1,6-glucosidase IMA1 (Saccharomyces cerevisiae S288c) (P53051 whole entry): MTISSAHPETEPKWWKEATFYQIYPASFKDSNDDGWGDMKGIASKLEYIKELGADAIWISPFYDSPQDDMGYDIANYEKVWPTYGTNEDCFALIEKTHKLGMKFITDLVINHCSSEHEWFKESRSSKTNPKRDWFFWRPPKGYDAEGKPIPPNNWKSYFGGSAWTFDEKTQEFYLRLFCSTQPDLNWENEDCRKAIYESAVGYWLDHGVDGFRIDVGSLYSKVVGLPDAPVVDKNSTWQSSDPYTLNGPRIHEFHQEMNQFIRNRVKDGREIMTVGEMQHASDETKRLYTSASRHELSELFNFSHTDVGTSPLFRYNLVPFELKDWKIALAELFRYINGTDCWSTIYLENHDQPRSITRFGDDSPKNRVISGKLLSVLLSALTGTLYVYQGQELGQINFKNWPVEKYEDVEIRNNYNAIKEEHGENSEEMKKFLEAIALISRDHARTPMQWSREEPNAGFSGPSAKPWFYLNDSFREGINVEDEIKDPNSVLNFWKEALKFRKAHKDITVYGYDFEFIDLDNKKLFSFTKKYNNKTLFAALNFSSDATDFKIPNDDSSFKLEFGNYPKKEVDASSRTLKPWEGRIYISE

Row | SMILES | IC50 (Alpha-glucosidase MAL12) | Ratio IC50 [1] | inhibition [2]
1 | COC(=O)CC1Nc2ccccc2-c2ccc3c(c21)C1(OCC(C)(C)CO1)C(=O)N3C (configuration not stated) | > 300 µM |  | 
2 | COC(=O)CC1Oc2ccccc2-c2ccc3c(c21)C(=O)C(=O)N3Cc1ccc(OC)cc1 (configuration not stated) | 32.3 µM |  | 
3 | COC(=O)CC1Oc2ccccc2-c2ccc3c(c21)C(=O)C(=O)N3Cc1ccc(C(F)(F)F)cc1 (configuration not stated) | 15.7 µM |  | 
4 | COC(=O)CC1Nc2ccccc2-c2ccc3c(c21)C(=O)C(=O)N3Cc1ccc(OC)cc1 (configuration not stated) | 45.3 µM |  | 
5 | O=C(O)CC1Oc2ccccc2-c2ccc3c(c21)C(=O)C(=O)N3Cc1ccc(C(F)(F)F)cc1 (configuration not stated) | 4.8 µM | 20 | Active
6 | COC(=O)CC1Oc2ccccc2-c2cc(C)c3c(c21)C(=O)C(=O)N3C (configuration not stated) | 34.8 µM |  | 
7 | COC(=O)CC1c2c(ccc3c2C(=O)C(=O)N3C)-c2ccccc2N1C(C)=O (configuration not stated) | > 300 µM |  | 
8 | COC(=O)CC1c2c(ccc3c2C(=O)C(=O)N3C)-c2ccccc2N1S(=O)(=O)c1ccccc1 (configuration not stated) | 77.1 µM |  | 
9 | COC(=O)CC1c2c(ccc3c2C(=O)C(=O)N3C)-c2ccccc2N1C(=O)c1ccccc1 (configuration not stated) | 150 µM |  | 

More lines, now with the values ahead:

Row | IC50 (Alpha-glucosidase MAL12) | Ratio IC50 [1] | inhibition [2] | SMILES
10 | 42.9 µM |  |  | COC(=O)CC1c2c(ccc3c2C(=O)C(=O)N3C)-c2ccccc2N1S(=O)(=O)c1ccc(F)cc1 (configuration not stated)
11 | 117 µM |  |  | COC(=O)CC1Nc2ccccc2-c2cc(C)c3c(c21)C(=O)C(=O)N3C (configuration not stated)
12 | 75.9 µM |  |  | COC(=O)CC1c2c(ccc3c2C(=O)C(=O)N3C)-c2ccccc2N1C(=O)c1ccc(Cl)cc1 (configuration not stated)
13 | 39.3 µM |  |  | COC(=O)CC1Oc2ccccc2-c2cc(C)c3c(c21)C(=O)C(=O)N3Cc1ccccc1 (configuration not stated)
14 | 16 µM |  |  | O=C(O)CC1Oc2ccccc2-c2ccc3c(c21)C(=O)C(=O)N3Cc1ccccc1 (configuration not stated)
15 | 12.1 µM |  |  | COC(=O)CC1Oc2ccccc2-c2ccc3c(c21)C(=O)C(=O)N3Cc1ccccc1 (configuration not stated)
16 | 111 µM |  |  | COC(=O)CC1c2c(ccc3c2C(=O)C(=O)N3C)-c2ccccc2N1C(=O)c1ccc(OC)cc1 (configuration not stated)
17 | 105 µM |  |  | COC(=O)CC1Oc2ccccc2-c2ccc3c(c21)C(=O)C(=O)N3C (configuration not stated)
18 | 187 µM |  |  | CN1C(=O)C(=O)c2c1ccc1c2C(CC(=O)O)Nc2ccccc2-1 (configuration not stated)
19 | 287 µM |  |  | COC(=O)CC1Nc2ccccc2-c2ccc3c(c21)C(=O)C(=O)N3C (configuration not stated)
20 | 29 µM |  |  | CN1C(=O)C(=O)c2c1ccc1c2C(CC(=O)O)Oc2ccccc2-1 (configuration not stated)
